Experimental data taken from US6852337B2, “Carvedilol-galenics” (Roche Diagnostics GmbH, priority 1998, dated 2005).

Test: In-vitro dissolution rate, USP XXII paddle method, aqueous buffer pH 4.5
Format: physicochemical
Description: In the case of drugs which cannot develop their action in the gastrointestinal zone itself, release from the drug form in the gastrointestinal tract and the subsequent resorption are the necessary condition for a therapeutic effect. Problems arise in this connection with those active substances which, because of their poor solubility or their low dissolution speed, attain so low a concentration in the gastrointestinal tract in the aqueous medium or because of obstructed release from the system of the other adjuvants, that the dissolution of the active substance is the step which determines the rate in connection with the resorption. […] The solubility and release rate are determined by standard methods, e.g. in accordance with the paddle method of USP XXII.
The in-vitro dissolution rates in this and the following examples were determined in accordance with USP XXII, paddle method in an aqueous buffer pH 4.5

In-vitro dissolution rate after 10 minutes [%] | In-vitro dissolution rate after 20 minutes [%] | In-vitro dissolution rate after 30 minutes [%] | In-vitro dissolution rate after 60 minutes [%] | Structure (SMILES)
31 | 43 | 50 | 58 | OC(COc1cccc2[nH]ccc12)CN1CCC(COc2ccccc2)CC1 (centres unmarked) [Active substance A, 4-[2-hydroxy-3-[4-(phenoxymethyl)piperidino]-propoxy]-indole]
36 | 46 | 49 | 56 | COc1ccccc1OCCNCC(O)COc1cccc2[nH]c3ccccc3c12 (centres unmarked) [Active substance B, carvedilol]
